Results taken from the NIST ThermoML archive (doi:10.1016/j.jct.2005.01.009).
Numbers after ± are expanded uncertainties.

Test: mn = molality of the nth substance listed, in mol/kg
Conditions: 101 kPa, Liquid; for speed of sound: Linear variable-path acoustic interferometer

CCCCn1cc[n+](C)c1.[Br-] [1-butyl-3-methylimidazolium bromide] + CCO
Conditions	mass density, 298.15 K [kg/m3]	mass density, 303.15 K [kg/m3]	mass density, 308.15 K [kg/m3]	mass density, 313.15 K [kg/m3]	mass density, 318.15 K [kg/m3]	speed of sound, 298.15 K [m/s]	speed of sound, 303.15 K [m/s]	speed of sound, 308.15 K [m/s]	speed of sound, 313.15 K [m/s]	speed of sound, 318.15 K [m/s]
m1 = 0.0271	787.221 ± 2.4	782.917 ± 2.4	778.581 ± 2.4	774.206 ± 2.5	769.798 ± 2.5	1145.2 ± 1.3	1128.3 ± 1.3	1111.6 ± 1.3	1094.9 ± 1.3	1078.3 ± 1.3
m1 = 0.0587	789.649 ± 2.3	785.356 ± 2.4	781.029 ± 2.4	776.665 ± 2.4	772.267 ± 2.5	1147.3 ± 1.3	1130.5 ± 1.3	1113.8 ± 1.3	1097.1 ± 1.3	1080.6 ± 1.3
m1 = 0.0846	791.567 ± 2.3	787.288 ± 2.4	782.969 ± 2.4	778.613 ± 2.4	774.213 ± 2.5	1148.6 ± 1.3	1131.9 ± 1.3	1115.3 ± 1.3	1098.6 ± 1.3	1082.1 ± 1.3
m1 = 0.1257	794.595 ± 2.3	790.319 ± 2.3	786.01 ± 2.4	781.663 ± 2.4	777.288 ± 2.4	1150.8 ± 1.4	1134 ± 1.3	1117.4 ± 1.3	1101 ± 1.3	1084.5 ± 1.3
m1 = 0.1587	796.91 ± 2.3	792.647 ± 2.3	788.343 ± 2.4	784.006 ± 2.4	779.628 ± 2.4	1152.7 ± 1.4	1136.1 ± 1.3	1119.4 ± 1.3	1103 ± 1.3	1086.5 ± 1.3
m1 = 0.2261	801.67 ± 2.2	797.404 ± 2.3	793.117 ± 2.3	788.795 ± 2.4	784.413 ± 2.4	1155.8 ± 1.4	1139.7 ± 1.3	1123.2 ± 1.3	1106.8 ± 1.3	1090.5 ± 1.3
m1 = 0.3162	807.896 ± 2.2	803.664 ± 2.2	799.393 ± 2.3	795.091 ± 2.3	790.753 ± 2.3	1160.7 ± 1.4	1144.3 ± 1.4	1128 ± 1.3	1111.7 ± 1.3	1095.4 ± 1.3

CCCCn1cc[n+](C)c1.[Br-] [1-butyl-3-methylimidazolium bromide] + CO
Conditions	mass density, 298.15 K [kg/m3]	mass density, 303.15 K [kg/m3]	mass density, 308.15 K [kg/m3]	mass density, 313.15 K [kg/m3]	mass density, 318.15 K [kg/m3]	speed of sound, 298.15 K [m/s]	speed of sound, 303.15 K [m/s]	speed of sound, 308.15 K [m/s]	speed of sound, 313.15 K [m/s]	speed of sound, 318.15 K [m/s]
m1 = 0.0473	790.393 ± 2.3	785.688 ± 2.4	780.958 ± 2.4	776.204 ± 2.5	771.426 ± 2.5	–	1090.5 ± 1.3	1074.3 ± 1.3	1058.2 ± 1.2	1042.3 ± 1.2
m1 = 0.0767	792.789 ± 2.3	788.091 ± 2.4	783.371 ± 2.4	778.627 ± 2.4	773.86 ± 2.5	–	1092.6 ± 1.3	1076.5 ± 1.3	1060.5 ± 1.3	1044.7 ± 1.2
m1 = 0.1497	798.175 ± 2.3	793.495 ± 2.3	788.794 ± 2.3	784.073 ± 2.4	779.323 ± 2.4	1114.1 ± 1.3	1098 ± 1.3	1081.9 ± 1.3	1066 ± 1.3	1050.2 ± 1.2
m1 = 0.2612	806.303 ± 2.2	801.654 ± 2.2	796.988 ± 2.3	792.294 ± 2.3	787.582 ± 2.4	1121.7 ± 1.3	1105.7 ± 1.3	1089.7 ± 1.3	1073.9 ± 1.3	1058.2 ± 1.3
m1 = 0.3434	812.207 ± 2.2	807.572 ± 2.2	802.921 ± 2.2	798.249 ± 2.3	793.553 ± 2.3	1127.1 ± 1.3	1111.1 ± 1.3	1095.2 ± 1.3	1079.4 ± 1.3	1063.8 ± 1.3
m1 = 0.4912	822.389 ± 2.1	817.794 ± 2.1	813.177 ± 2.2	808.542 ± 2.2	803.883 ± 2.2	1136.4 ± 1.3	1120.6 ± 1.3	1104.8 ± 1.3	1089.2 ± 1.3	1073.8 ± 1.3
m1 = 0.7273	837.955 ± 2	833.402 ± 2	828.837 ± 2	824.253 ± 2.1	819.66 ± 2.1	1151 ± 1.4	1135.4 ± 1.4	1119.9 ± 1.3	1104.5 ± 1.3	1089.2 ± 1.3
m1 = 0.9756	852.578 ± 1.8	848.25 ± 1.9	843.727 ± 1.9	839.188 ± 1.9	834.634 ± 2	1164.1 ± 1.4	1148.7 ± 1.4	1133.4 ± 1.4	1118.2 ± 1.4	1103.1 ± 1.4
m1 = 1.405	876.422 ± 1.7	871.97 ± 1.7	867.512 ± 1.7	863.046 ± 1.8	858.563 ± 1.8	1186.2 ± 1.4	1171 ± 1.4	1156 ± 1.4	1141 ± 1.4	1126.3 ± 1.4
m1 = 2.446	924.879 ± 1.3	920.559 ± 1.3	916.245 ± 1.4	911.924 ± 1.4	907.596 ± 1.4	1233.3 ± 1.6	1218.8 ± 1.6	1204.4 ± 1.6	1190.1 ± 1.5	1175.9 ± 1.6
m1 = 3.896	976.589 ± 0.96	972.412 ± 0.99	968.238 ± 1	964.059 ± 1	959.889 ± 1.1	1287.4 ± 1.7	1273.5 ± 1.7	1259.7 ± 1.7	1246 ± 1.7	1232.5 ± 1.7

CCCCn1cc[n+](C)c1.[Br-] [1-butyl-3-methylimidazolium bromide] + O
Conditions	mass density, 298.15 K [kg/m3]	mass density, 303.15 K [kg/m3]	mass density, 308.15 K [kg/m3]	mass density, 313.15 K [kg/m3]	mass density, 318.15 K [kg/m3]	speed of sound, 298.15 K [m/s]	speed of sound, 303.15 K [m/s]	speed of sound, 308.15 K [m/s]	speed of sound, 313.15 K [m/s]	speed of sound, 318.15 K [m/s]
m1 = 0.0692	1000.44 ± 0.65	999.001 ± 0.65	997.35 ± 0.67	995.472 ± 0.68	993.421 ± 0.7	1504 ± 1.6	1515.9 ± 1.6	1526 ± 1.6	1534.6 ± 1.6	1541.9 ± 1.6
m1 = 0.1376	1003.7 ± 0.68	1002.2 ± 0.66	1000.49 ± 0.65	998.581 ± 0.66	996.491 ± 0.68	1511.3 ± 1.6	1522.7 ± 1.6	1532.3 ± 1.6	1540.4 ± 1.6	1546.9 ± 1.6
m1 = 0.2697	1009.85 ± 0.73	1008.28 ± 0.72	1006.54 ± 0.7	1004.6 ± 0.69	1002.47 ± 0.67	1523.1 ± 1.6	1533.3 ± 1.6	1541.9 ± 1.6	1549.1 ± 1.6	1555 ± 1.6
m1 = 0.6117	1024.93 ± 0.86	1023.15 ± 0.84	1021.17 ± 0.83	1019.01 ± 0.81	1016.68 ± 0.79	1552.2 ± 1.6	1561.7 ± 1.6	1568.7 ± 1.6	1573.8 ± 1.6	1577 ± 1.6
m1 = 1.28	1050.92 ± 1.1	1048.78 ± 1.1	1046.56 ± 1.1	1044.14 ± 1	1041.59 ± 1	1600.3 ± 1.7	1603.5 ± 1.7	1605.6 ± 1.7	1606.7 ± 1.7	1606.9 ± 1.7
m1 = 2.133	1078.26 ± 1.3	1075.78 ± 1.3	1073.14 ± 1.3	1070.42 ± 1.3	1067.58 ± 1.2	1645.9 ± 1.8	1644.9 ± 1.8	1644.1 ± 1.8	1640.6 ± 1.8	1637.5 ± 1.8
m1 = 3.115	1103.8 ± 1.6	1100.98 ± 1.5	1098.05 ± 1.5	1095.04 ± 1.5	1091.93 ± 1.5	1682.7 ± 1.9	1678.3 ± 1.9	1673.3 ± 1.9	1667.9 ± 1.9	1662 ± 1.9
m1 = 5.187	1143.52 ± 1.9	1140.26 ± 1.9	1136.94 ± 1.9	1133.57 ± 1.8	1130.13 ± 1.8	1724.2 ± 2	1716 ± 2	1707.4 ± 2	1698.6 ± 2	1689.6 ± 2.1
m1 = 7.792	1176.05 ± 2.2	1172.57 ± 2.2	1169.05 ± 2.1	1165.49 ± 2.1	1161.9 ± 2.1	1741.2 ± 2.2	1731.4 ± 2.2	1721.3 ± 2.2	1711 ± 2.2	1700.5 ± 2.2
